These results are taken from US20110212169A1, “METHOD FOR PRODUCING POWDER CONTAINING NANOPARTICULATED SPARINGLY SOLUBLE DRUG, POWDER PRODUCED THEREBY AND PHARMACEUTICAL COMPOSITION CONTAINING SAME (As Amended)” (Amorepacific Corporation, priority 2008, published 2011).

The nature of the data set: Particle size of drug after redispersion in distilled water (laser scattering particle size analyzer). It counts as physicochemical. The method, then:
Each powder (0.01 g) was redispersed in distilled water (5 mL) and particle size was measured. Electron microscopic images of the powders when the concentration of the carageenan solution was 0.1 wt % and 2 wt % are shown in FIGS. 2a and 2b, respectively. The redispersion was conducted by lightly shaking the mixture with a hand. The particle size was measured under aqueous condition using a laser scattering particle size analyzer (LA 910, Horiba, Japan) (Mie & Fraunhofer, relative refraction index=1). The resolving power of the ultrasonic disperser used for the particle size measurement was 40 W (39 kHz), and the speed of stirring and circulation was 340 mL/min. The particle size measurement was made after performing ultrasonic dispersion for 1 minute.

Turning to `C=CC[C@@H]1/C=C(\C)C[C@H](C)C[C@H](OC)[C@H]2O[C@@](O)(C(=O)C(=O)N3CCCC[C@H]3C(=O)O[C@H](/C(C)=C/[C@@H]3CC[C@@H](O)[C@H](OC)C3)[C@H](C)[C@@H](O)CC1=O)[C@H](C)C[C@@H]2OC` [Tacrolimus, tacrolimus], the Average particle size (carageenan 5 wt %, freeze dried powder redispersed in distilled water, different drugs) is on record as 0.16 (±0.09) μm.
In the case of `COc1ccc2cc([C@H](C)C(=O)O)ccc2c1` [naproxen], the Average particle size by setting is: (1 wt % carageenan, hot air drying at 40 °C, redispersed in distilled water) 0.39 (±1.01) μm; (1 wt % carageenan, hot air drying at 60 °C, redispersed in distilled water) 0.36 (±0.29) μm; (carageenan 0.1 wt %, freeze dried powder redispersed in distilled water) 0.91 (±2.00) μm; (carageenan 0.5 wt %, freeze dried powder redispersed in distilled water) 0.31 (±0.10) μm; (carageenan 0.5 wt %, vacuum drying at room temperature, redispersed in distilled water) 0.36 (±0.71) μm; (carageenan 1 wt %, freeze dried powder redispersed in distilled water) 0.28 (±0.08) μm. Besides, the Average particle size is recorded as 0.26 (±0.06) μm (carageenan 1 wt %, vacuum drying at room temperature, redispersed in distilled water); 0.23 (±0.06) μm (carageenan 2 wt %, freeze dried powder redispersed in distilled water); 0.21 (±0.06) μm (carageenan 2 wt %, vacuum drying at room temperature, redispersed in distilled water); 0.26 (±0.07) μm (carageenan 3 wt %, freeze dried powder redispersed in distilled water); 0.23 (±0.06) μm (carageenan 3 wt %, vacuum drying at room temperature, redispersed in distilled water); 0.12 (±0.05) μm (carageenan 5 wt %, freeze dried powder redispersed in distilled water). Further, the Average particle size (naproxen concentration 16 wt %, carageenan 0.5 wt %, freeze dried, redispersed in distilled water) is reported as 0.56 (±1.20) μm and the Average particle size (naproxen concentration 16 wt %, carageenan 1 wt %, freeze dried, redispersed in distilled water) is on record as 0.22 (±0.07) μm. Moreover, the drug particle size was 0.31 (±0.41) (alginic acid 1 wt %, vacuum drying at room temperature, redispersed in distilled water); 0.19 (±0.05) (alginic acid 2 wt %, vacuum drying at room temperature, redispersed in distilled water); 0.45 (±0.89) (gelatin 1 wt %, freeze drying, redispersed in distilled water); 0.16 (±0.08) (gelatin 2 wt %, freeze drying, redispersed in distilled water); 0.13 (±0.06) (gelatin 3 wt %, freeze drying, redispersed in distilled water); 0.36 (±0.10) (gelatin 3 wt %, vacuum drying at room temperature, redispersed in distilled water). For the setting “gelatin 5 wt %, freeze drying, redispersed in distilled water”, the drug particle size was 0.16 (±0.05). Besides, the “average particle size of the naproxen particles” value (slurry mixture after wet grinding (before drying) redispersed in distilled water) is reported as 0.10 μm.
